Test results taken from patent publication US9546152B2 (MERCK SHARP & DOHME CORP., priority 2012, dated 2017).
Like-named read-outs stand apart in the source and are kept apart here.

Assays:
human orexin-2 receptor [1] = target: T1, human orexin-2 receptor (Homo sapiens (Human), UniProt O43614); assay: FLIPR Ca2+ Flux Assay, orexin-2 receptor; type: cell-based; settings: read-out: hOX2R FLIPR IC50
Outline: (§1)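 FLIPR Ca2+ flux, CHO cells, rat OX1R / human OX2R; 5 min cpd preinc, then 70 pM Ala-6,12 hOrexin-A final; buffer pH 7.4 w/ 2.5 mM probenecid; peak vs agonist-alone.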

rat orexin-1 receptor = rat orexin-1 receptor (Rattus norvegicus (Rat), UniProt P56718); assay: FLIPR Ca2+ Flux Assay, orexin-1 receptor; type: cell-based; settings: read-out: hOX1R FLIPR IC50
Outline: as §1

human orexin-2 receptor [2] = target: T1, human orexin-2 receptor; assay: radioligand binding assay, orexin-2 receptor; settings: read-out: hOX2R BIND hKi
[3] = target: orexin-1 receptor (hOX1R) (Rattus norvegicus, UniProt P56718); assay: radioligand binding assay, orexin-1 receptor; settings: membranes prepared from CHO cells expressing the OX1 receptor; read-out: hOX1R BIND hKi
Protocol: In a typical experiment the OX1 and OX2 receptor antagonistic activity of the compounds of the present invention was determined in accordance with the following experimental method. For intracellular calcium measurements, Chinese hamster ovary (CHO) cells expressing the rat orexin-1 receptor or the human orexin-2 receptor, are grown in Iscove's modified DMEM containing 2 mM L-glutamine, […], 1% hypoxanthine-thymidine supplement, 100 U/ml penicillin, 100 μg/ml streptomycin and 10% heat-inactivated fetal calf serum (FCS). The cells are seeded at 20,000 cells/well into Becton-Dickinson black 384-well clear bottom sterile plates coated with poly-D-lysine. […] Within the Fluorescent Imaging Plate Reader (FLIPR, Molecular Devices), test compounds are added to the plate in a volume of 25 μl, incubated for 5 min and finally 25 μl of agonist is added. Fluorescence is measured for each well at 1 second intervals for 5 minutes and the height of each fluorescence peak is compared to the height of the fluorescence peak induced by 70 pM Ala-6,12 orexin-A with buffer in place of antagonist. […] Alternatively, compound potency can be assessed by a radioligand binding assay (described in Bergman et. al. Bioorg. Med. Chem. Lett. 2008, 18, 1425-1430) in which the inhibition constant (Ki) is determined in membranes prepared from CHO cells expressing either the OX1 or OX2 receptor. […]

[4] = CHO cells expressing the human orexin-2 receptor, agonist 70 pM Ala-6,12 human orexin-A
[5] = CHO cells expressing the rat orexin-1 receptor, agonist 70 pM Ala-6,12 human orexin-A
[6] = membranes prepared from CHO cells expressing the OX2 receptor

T1 sequence (O43614 whole entry): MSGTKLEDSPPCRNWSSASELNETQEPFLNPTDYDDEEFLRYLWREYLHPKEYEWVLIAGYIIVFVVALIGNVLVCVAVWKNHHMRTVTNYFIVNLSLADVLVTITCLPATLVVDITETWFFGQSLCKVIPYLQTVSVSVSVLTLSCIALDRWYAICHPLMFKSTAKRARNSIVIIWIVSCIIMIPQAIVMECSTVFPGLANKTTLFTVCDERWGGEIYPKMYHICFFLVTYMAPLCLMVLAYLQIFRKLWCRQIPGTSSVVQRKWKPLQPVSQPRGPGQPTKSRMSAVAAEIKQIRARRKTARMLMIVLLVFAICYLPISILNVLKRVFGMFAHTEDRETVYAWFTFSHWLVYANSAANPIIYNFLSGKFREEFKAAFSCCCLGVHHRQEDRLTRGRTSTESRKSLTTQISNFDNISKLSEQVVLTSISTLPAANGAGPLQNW
rat orexin-1 receptor, sequence (P56718 whole entry): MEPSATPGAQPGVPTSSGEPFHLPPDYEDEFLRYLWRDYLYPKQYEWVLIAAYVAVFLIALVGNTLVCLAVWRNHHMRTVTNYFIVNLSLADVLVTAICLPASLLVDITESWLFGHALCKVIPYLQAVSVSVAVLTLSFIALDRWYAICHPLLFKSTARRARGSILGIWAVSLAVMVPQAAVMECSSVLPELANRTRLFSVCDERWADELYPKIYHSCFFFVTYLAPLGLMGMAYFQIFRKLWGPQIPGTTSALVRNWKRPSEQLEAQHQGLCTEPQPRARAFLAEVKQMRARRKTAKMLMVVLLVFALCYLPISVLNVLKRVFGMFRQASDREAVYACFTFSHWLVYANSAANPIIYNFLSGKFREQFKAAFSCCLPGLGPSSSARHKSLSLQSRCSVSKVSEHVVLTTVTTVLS
orexin-1 receptor (hOX1R), sequence (P56718 whole entry, looked up): as the sequence (P56718 whole entry) above

| SMILES | IC50 (human orexin-2 receptor [1]; [4]) [nM] | IC50 (rat orexin-1 receptor; [5]) [nM] | Ki (human orexin-2 receptor [2]; [6]) [nM] | IC50 (human orexin-2 receptor [1]) [nM] | Ki [3] [nM] | IC50 (rat orexin-1 receptor) [nM] | Ki (human orexin-2 receptor [2]) [nM] |
| --- | --- | --- | --- | --- | --- | --- | --- |
| COc1c(C#N)ccnc1O[C@@H]1CC[C@@H](C)N(C(=O)c2cccc(F)c2-n2nccn2)C1 [Example 97, 2-{[(3R,6R)-1-{[3-fluoro-2-(2H-1,2,3-triazol-2-yl)phenyl]carbonyl}-6-methylpiperidin-3-yl]oxy}-3-methoxypyridine-4-carbonitrile] | 19 | 1100 | 0.3 |  |  |  |  |
| COc1c(C#N)ccnc1O[C@@H]1CC[C@@H](C)N(C(=O)c2cc(F)ccc2-n2nccn2)C1 [Example 99, 2-{[(3R,6R)-1-{[5-fluoro-2-(2H-1,2,3-triazol-2-yl)phenyl]carbonyl}-6-methylpiperidin-3-yl]oxy}-3-methoxypyridine-4-carbonitrile] | 15 | 2430 | 0.4 |  |  |  |  |
| COc1c(C#N)ccnc1O[C@@H]1CC[C@@H](C)N(C(=O)c2c(F)cccc2-n2nccn2)C1 [Example 100, 2-{[(3R,6R)-1-{[2-fluoro-6-(2H-1,2,3-triazol-2-yl)phenyl]carbonyl}-6-methylpiperidin-3-yl]oxy}-3-methoxypyridine-4-carbonitrile] | 25 | 1440 | 0.3 |  |  |  |  |
| COc1c(C#N)ccnc1O[C@@H]1CC[C@@H](C)N(C(=O)c2cccc(C)c2-n2nccn2)C1 [Example 101, 3-methoxy-2-{[(3R,6R)-6-methyl-1-{[3-methyl-2-(2H-1,2,3-triazol-2-yl)phenyl]carbonyl}piperidin-3-yl]oxy}pyridine-4-carbonitrile] | 21 | 957 | 0.3 |  |  |  |  |
| COc1c(C#N)ccnc1O[C@@H]1CC[C@@H](C)N(C(=O)c2ccc(C)cc2-n2nccn2)C1 [Example 102, 3-methoxy-2-{[(3R,6R)-6-methyl-1-{[4-methyl-2-(2H-1,2,3-triazol-2-yl)phenyl]carbonyl}piperidin-3-yl]oxy}pyridine-4-carbonitrile] | 21 | 3550 | 0.4 |  |  |  |  |
| COc1c(C#N)ccnc1O[C@@H]1CC[C@@H](C)N(C(=O)c2cc(C)ccc2-n2nccn2)C1 [Example 103, 3-methoxy-2-{[(3R,6R)-6-methyl-1-{[5-methyl-2-(2H-1,2,3-triazol-2-yl)phenyl]carbonyl}piperidin-3-yl]oxy}pyridine-4-carbonitrile] | 24 | 1010 | 0.4 |  |  |  |  |
| COc1ccc(C(=O)N2C[C@H](Oc3nccc(C#N)c3OC)CC[C@H]2C)c(-n2nccn2)n1 [Example 104, 3-methoxy-2-{[(3R,6R)-1-{[6-methoxy-2-(2H-1,2,3-triazol-2-yl)pyridin-3-yl]carbonyl}-6-methylpiperidin-3-yl]oxy}pyridine-4-carbonitrile] | 29 | > 10000 | 2 |  |  |  |  |
| COc1c(C#N)ccnc1O[C@@H]1CC[C@@H](C)N(C(=O)c2ccccc2C2CCC2)C1 [Example 105, 2-({(3R,6R)-1-[(2-cyclobutylphenyl)carbonyl]-6-methylpiperidin-3-yl}oxy)-3-methoxypyridine-4-carbonitrile] | 36 | 3500 | 0.2 |  |  |  |  |
| COc1c(C#N)ccnc1O[C@@H]1CC[C@@H](C)N(C(=O)c2ccccc2-c2ncccn2)C1 [Example 107, 3-methoxy-2-({(3R,6R)-6-methyl-1-[(2-pyrimidin-2-ylphenyl)carbonyl]piperidin-3-yl}oxy)pyridine-4-carbonitrile] | 33 | 2750 | 0.4 |  |  |  |  |
| COc1c(C#N)ccnc1O[C@@H]1CC[C@@H](C)N(C(=O)c2cccc(F)c2-c2ncccn2)C1 [Example 109] |  |  |  | 26 | 482 | 2850 | 1.1 |
| COc1c(C#N)ccnc1O[C@@H]1CC[C@@H](C)N(C(=O)c2ccc(F)cc2-c2ncccn2)C1 [Example 110, 2-({(3R,6R)-1-[(4-fluoro-2-pyrimidin-2-ylphenyl)carbonyl]-6-methylpiperidin-3-yl}oxy)-3-methoxypyridine-4-carbonitrile] | 39 | 1240 | 0.6 |  |  |  |  |
| COc1c(C#N)ccnc1O[C@@H]1CC[C@@H](C)N(C(=O)c2cc(F)ccc2-c2ncccn2)C1 [Example 111, 2-({(3R,6R)-1-[(5-fluoro-2-pyrimidin-2-ylphenyl)carbonyl]-6-methylpiperidin-3-yl}oxy)-3-methoxypyridine-4-carbonitrile] | 18 | 945 | 0.3 |  |  |  |  |
| COc1c(C#N)ccnc1O[C@@H]1CC[C@@H](C)N(C(=O)c2ccccc2-n2ncnn2)C1 [Example 115, 3-Methoxy-2-{[(3R,6R)-6-methyl-1-{[2-(2H-tetrazol-2-yl)phenyl]carbonyl}piperidin-3-yl]oxy}pyridine-4-carbonitrile] | 6 | 1650 | 1.4 |  |  |  |  |
